Assay results: patent US12492210B2, “Tricyclic compounds and their use” (HUTCHISON MEDIPHARMA LIMITED, priority 2019, dated 2025)

Tests used:
[1] = target: T1, MAPK1(ERK2) enzyme (Homo sapiens, UniProt P28482); assay: Z-Lyte Kinase Assay of ERK2; type: biochemical; conditions: read-out: Example 18 IC50
T1 construct: purchased Invitrogen PV3313
Experimental: Example 18: Z-Lyte Kinase Assay of ERK2
1. Materials and Reagents:
2. Reaction Steps: Plate Map
3. Solution Preparation • 1) 1.33× Kinase Buffer: Dilute 5× Kinase Buffer to 1.33× with ddH2O • 2) 4× Test Compounds: Serially dilute the test compounds to 4 folds of the concentrations desired, keeping the DMSO concentration at 8%. The final concentrations are 1, 0.33, 0.11, 0.037, 0.012, 0.004, 0.0014, 0.00046 μM, and the final concentration of DMSO is 2%. • 3) Kinase/Peptide Mixture (P/K solution): Prepare Kinase/Peptide Mixture by diluting the kinase to 0.6 μg/ml and the Z-LYTE™ Ser/Thr3 peptide to 4 μM in 1.33× Kinase Buffer. Mix gently by pipetting. • 4) Phospho-peptide Solution (PP solution): Add 0.4 μl of Z-LYTE™ Ser/Thr3 Phospho-peptide to 99.6 μl of 1.33× Kinase Buffer. • 5) ATP Solution: Prepare ATP Solution by diluting the 10 mM of ATP in 1.33× Kinase Buffer to 100 μM. • 6) Development Solution: Dilute Development Reagent A with Development Buffer as 1:1024. 4. Reaction • 1) Kinase reaction (10 μl of Volume) • a. In a 384-well plate, add 2.5 μl of 4× test Cpds to each well except C1, C2, C3 wells Add 2.5 μl of 8% DMSO to C1, C2, C3 wells • b. Put the plate on ice • c. Add 5 μl of P/K mixture to each test Cpd wells and C1, C2 wells • d. Add 5 μl of PP Solution to C3 well • e. Add 2.5 μl of 1.33× kinase buffer to C1 and C3 wells • f. Add 2.5 μl of 4×ATP Solution to each test Cpd wells and C2 well, respectively. Shake the plate for 30 Sec and centrifuge (1500 rpm, 1 min) • g. Seal the plate to protect from the light and incubate the plate for 1 hour at RT (25-30° C.) • 2) Development reaction • a. Add 5 μl of the Development solution to all wells • b. Shake the plate for 30 sec and centrifuge (1500 rpm, 1 min) • c. Seal the plate to protect from the light and incubate the plate for 1 hour at RT (25-30° C.) • 3) Stop and read • a. Add 5 μl of the Stop reagent to all wells • b. Shake the plate for 30 sec and centrifuge (1500 rpm, 1 min) • c. Measure the value of coumarin (Ex400 nm, Em445 nm) and fluorescein (Ex400 nm, Em520 nm), respectively. 5. Data Analysis Emission Ratio(ER)=Coumarin Emission (445 nm)/Fluorescein Emission (520 nm) % Phosphorylation=1−[ER×C3520nm−C3445nm]/[(C1445nm−C3445nm)+ER×(C3520nm−C1520nm)] Inhibition rate (IR)=1−% Photest Cpd% PhoC2 6. IC50 Value: determine IC50 with add-in software for Microsoft Excel, XLfit™ (version 2.0) from ID Business Solutions (Guildford, UK)

[2] = system: p-RSK (Thr359) in colo205 cells; assay: p-RSK (Thr359) Acumen Assay in Colo205; type: cell-based; conditions: Homo sapiens, COLO 205, 1 hour compound incubation, read-out: Example 19 IC50
Experimental: Example 19: p-RSK (Thr359) Acumen Assay in Colo205
• Phospho-p90RSK (Thr359) (D1E9) Rabbit mAb: cell signal, #8753 • Alexa Fluor® 488 donkey anti-rabbit IgG: invitrogen, #A-21206 • Propidium Iodide: Sigma, #p4170 • 4% Paraformaldehyde: SCRC, #DF021 • 10% Triton X-100: PIERCE, #28314 • 96-well plate (black with clear bottom): BD, #354640 • Acumen® eX3 (A Multilaser Microplate Cytometer For Enhanced High Content Screening): TTP LabTech 3. Acumen Assay Protocol • Seed 4000 cells in 100 μl 10% FBS/well into 96-well plate, incubate at 37° C., 5% CO2, overnight. • Dilute the compound to 3, 1, 0.33, 0.11, 0.037, 0.012, 0.004, 0.001 μM, keeping the DMSO concentration at 5%. Add 10 μl of diluted compound per well and incubate at 37° C., 5% CO2 for 1 hour. • Add 100 μl of 4% pre-warmed Paraformaldehyde (2% final), and incubate for 45 min at room temperature. • Remove paraformaldehyde solutions. Add 100 μl of ice-cold 0.1% Triton to fixed cells at room temperature for 30 min. • Wash twice with 150 μl PBS and incubate with 100 μl blocking buffer (1% BSA, in PBS) for 2˜3 hours at room temperature, seal the plate. • Wash once with PBS and incubate with 35 μl p-RSK (Thr359) (1:1000 dilution) overnight at 4° C. Seal the plate. • Wash twice with PBS and incubate for 1.5 hours at room temperature with 35 μl of Alexa Fluor® 488 donkey anti-rabbit IgG at a 1:1,000 dilution in antibody dilution buffer (0.1% BSA, in PBS). Cover plate in foil to keep out of light. • Wash twice with 150 μl PBS. Add 35 μl of 1.5 μM Propidium Iodide stock to each well to determine cell number, seal the plate. • Incubate at room temperature for 30 min. Load the plate into the Acumen Explorer and scan with the appropriate instrument settings. 4. Data Analysis
[formula] Note: • Percentagecompound well represents the positive percentage of cells treated by compound. • Percentagemin well represents the positive percentage of cells treated with 3 uM GDC0994. • Percentagemax well represents the positive percentage of cells without compounds treatment. 5. IC50 Value: determine IC50 with add-in software for Microsoft Excel, XLfit™ (version 2.0) from ID Business Solutions (Guildford, UK)

T1 sequence (P28482 whole entry): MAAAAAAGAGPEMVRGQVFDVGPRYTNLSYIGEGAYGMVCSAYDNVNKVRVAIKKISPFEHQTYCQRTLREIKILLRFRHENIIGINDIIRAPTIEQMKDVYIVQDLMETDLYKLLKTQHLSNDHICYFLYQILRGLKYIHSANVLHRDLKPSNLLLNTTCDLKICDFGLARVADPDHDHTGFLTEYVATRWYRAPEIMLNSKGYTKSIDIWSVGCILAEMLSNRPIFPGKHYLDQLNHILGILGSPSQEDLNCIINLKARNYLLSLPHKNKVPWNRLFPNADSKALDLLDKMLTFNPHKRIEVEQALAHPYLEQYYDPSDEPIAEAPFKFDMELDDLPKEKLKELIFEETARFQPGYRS

Compound | IC50 [1] [nM] | IC50 [2] [nM]
Cn1nccc1Nc1cc(-c2cc3n(c2)CCCn2c-3nnc2C(F)(F)c2ccccc2Cl)c(Cl)cn1 [Compound 35] | > 10 | ≤ 100
Cc1cnc(Nc2ccnn2C)nc1-c1cc2n(c1)CCCn1c(COc3ccccc3F)nnc1-2 [Compound 17] | ≤ 5 | ≤ 100
Cn1nccc1Nc1cc(-c2cc3n(c2)CC2(CC2)Cn2c-3nnc2C2(C(C)(F)F)CCC2)c(Cl)cn1 [Compound 136] | > 10 | ≤ 100
CCC(F)(F)c1nnc2n1[C@@H](CF)Cn1cc(-c3cc(Nc4ccnn4C)ncc3Cl)cc1-2 [Compound 61] | ≤ 5 | ≤ 100
Cc1cnc(Nc2ccnn2C)cc1-c1cc2n(c1)C[C@H](CF)n1c-2nnc1C(F)(F)c1ccccc1 [Compound 86] | 5 to 10 | ≤ 100
Cn1nccc1Nc1cc(-c2cc3n(c2)CCCn2c(COC4(C(F)(F)F)CCC4)nnc2-3)c(Cl)cn1 [Compound 34] | > 10 | > 100
[2H]C([2H])([2H])n1nccc1Nc1cc(-c2cc3n(c2)CCCn2c-3nnc2C2(C(F)(F)F)CCC2)c(C)cn1 [Compound 240] | ≤ 5 | ≤ 100
Cc1cnc(Nc2ccnn2C(C)C)nc1-c1cc2n(c1)C[C@H](C)n1c-2nnc1C(F)(F)c1ccccc1F [Compound 292] | > 10 | > 100
CCn1nccc1Nc1ncc(C)c(-c2cc3n(c2)C[C@H](C)n2c-3nnc2C(F)(F)c2ccccc2F)n1 [Compound 289] | > 10 | ≤ 100
Cc1cnc(Nc2ccnn2C)nc1-c1cc2n(c1)CCn1c-2nnc1C(F)(F)c1ccccc1F [Compound 70] | ≤ 5 | ≤ 100
C[C@H]1Cn2cc(-c3cc(Nc4ccnn4C)ncc3Cl)cc2-c2nnc(C3(C(F)(F)F)CCC3)n21 [Compound 256] | ≤ 5 | ≤ 100
Cc1cnc(Nc2ccnn2C)nc1-c1cc2n(c1)C[C@H](CF)n1c-2nnc1C(F)(F)c1c(F)cccc1F [Compound 189] | 5 to 10 | ≤ 100
FC[C@H]1Cn2cc(-c3cc(NN4CCOCC4)ncc3Cl)cc2-c2nnc(C(F)(F)c3ccccc3F)n21 [Compound 274] | > 10 | ≤ 100
Cn1nccc1Nc1nccc(-c2cc3n(c2)C[C@H](CF)n2c-3nnc2C(F)(F)c2ccccc2Cl)n1 [Compound 142] | 5 to 10 | ≤ 100
Cc1cnc(Nc2ccnn2C)nc1-c1cc2n(c1)C[C@H](C)n1c-2nnc1C(F)(F)c1cccc(F)c1 [Compound 89] | ≤ 5 | ≤ 100
Cn1nccc1Nc1cc(-c2cc3n(c2)C[C@H](F)Cn2c-3nnc2C(F)(F)C(F)F)c(Cl)cn1 [Compound 80] | ≤ 5 | ≤ 100
COc1cnc(Nc2ccnn2C)cc1-c1cc2n(c1)CC(F)(F)Cn1c-2nnc1C1(C(F)(F)F)CCC1 [Compound 214] | 5 to 10 | > 100
COCCn1nccc1Nc1ncc(C)c(-c2cc3n(c2)C[C@H](C)n2c-3nnc2C(F)(F)c2ccccc2F)n1 [Compound 296] | 5 to 10 | ≤ 100
COCC1Cn2cc(-c3cc(Nc4ccnn4C)ncc3Cl)cc2-c2nnc(C3(C(F)(F)F)CCC3)n2C1 (stereo not shown) [Compound 300, 5-chloro-4-(6-(methoxymethyl)-3-(1-(trifluoromethyl)cyclobutyl)-6,7-dihydro-5H-pyrrolo[1,2-a][1,2,4]triazolo[3,4-c][1,4]diazepin-10-yl)-N-(1-methyl-1H-pyrazol-5-yl)pyridin-2-amine] | 5 to 10 | ≤ 100

Further lines, results first:

IC50 [1] [nM] | IC50 [2] [nM] | Compound
≤ 5 | ≤ 100 | Cc1cnc(Nc2ccnn2C)cc1-c1cc2n(c1)C[C@H](CF)n1c-2nnc1C(F)(F)n1cc(Cl)cn1 [Compound 153]
≤ 5 | ≤ 100 | Cc1cn2cc(-c3ccnc(Nc4ccnn4C)n3)cc2c2nnc(C3(C(F)(F)F)CCC3)n12 [Compound 232]
5 to 10 | > 100 | Cc1cnc(NC2CCc3ncnn3C2)nc1-c1cc2n(c1)C[C@H](C)n1c-2nnc1C(F)(F)c1ccccc1F (stereo partly shown) [Compound 280]
≤ 5 | ≤ 100 | C[C@H]1CCn2cc(-c3cc(Nc4ccnn4C)ncc3Cl)cc2-c2nnc(C3(CC(F)(F)F)CCC3)n21 [Compound 160]
≤ 5 | ≤ 100 | Cc1c(-c2ccnc(Nc3ccnn3C)n2)cn2c1-c1nnc([C@H](C)Oc3ccccc3F)n1CCC2 [Compound 29]
≤ 5 | ≤ 100 | Cc1cnc(Nc2ccnn2C)cc1-c1cc2n(c1)C[C@H](C(F)F)n1c-2nnc1C(F)(F)n1cc(Cl)cn1 [Compound 198]
≤ 5 | > 100 | Cc1cnc(Nc2ccnn2C)cc1-c1cc2n(c1)C[C@H](CF)n1c-2nnc1C(F)(F)C(F)(F)F [Compound 76]
5 to 10 | ≤ 100 | Cn1nccc1Nc1ncc(F)c(-c2cc3n(c2)C[C@H](CF)n2c-3nnc2C(F)(F)c2ccccc2Cl)n1 [Compound 193]
5 to 10 | ≤ 100 | Cn1nccc1Nc1cc(-c2cc3n(c2)CCCn2c-3nnc2N2CCCc3ccccc32)c(Cl)cn1 [Compound 54]
5 to 10 | ≤ 100 | C[C@H]1Cn2cc(-c3ccnc(Nc4ccnn4C)n3)cc2-c2nnc(C(F)(F)c3ccccc3Cl)n21 [Compound 95]
≤ 5 | ≤ 100 | Cc1cnc(Nc2ccnn2C(F)F)nc1-c1cn2c(n1)-c1nnc(C(F)(F)c3ccccc3F)n1[C@@H](C)C2 [Compound 226]
≤ 5 | > 100 | CCC(F)(F)c1nnc2n1[C@@H](CF)Cn1cc(-c3cc(Nc4ccnn4C)ncc3C)cc1-2 [Compound 57]
≤ 5 | > 100 | COC[C@H]1Cn2cc(-c3cc(Nc4ccnn4C)ncc3Cl)cc2-c2nnc(C(F)(F)C(F)F)n21 [Compound 301]
≤ 5 | > 100 | Cn1nccc1Nc1cc(-c2cc3n(c2)CC2(COC2)n2c(CCC(F)(F)F)nnc2-3)c(Cl)cn1 [Compound 305]
≤ 5 | ≤ 100 | COc1ccccc1C(F)(F)c1nnc2n1[C@@H](CF)Cn1cc(-c3nc(Nc4ccnn4C)ncc3C)cc1-2 [Compound 167]
≤ 5 | ≤ 100 | Cn1nccc1Nc1nccc(-c2cc3c4nnc(COc5ccccc5F)n4ccn3c2)n1 [Compound 2]
